Assay results reported in patent US20250101062A1, “ANTIMICROBIAL PEPTIDES” (Board of Regents of the University of Nebraska, priority 2023, published 2025).
Where no end group is shown, it is not given here.

How the values were obtained:
MRSA USA300 [1] = test: Killing kinetics; format: cell-based, Staphylococcus aureus; details: 2×MIC
Method: MRSA USA300 was grown to the exponential phase (OD600˜0.3) in MHB. The culture was diluted to OD600 0.001 (˜10^5 CFU/mL). One milliliter of bacterial suspension was then mixed with LL-37mini or daptomycin at 2×MIC and incubated at 37° C. After 15, 30, 60, 90, and 120 minutes of incubation, 50 μL was taken and serially diluted with 1×PBS. Then, 50 μL of the diluted suspension was plated on mannitol salt agar plates (NEOGEN, MI). The plates were incubated overnight at 37° C. for bacterial CFU determination the next day.
For bacterial killing kinetics study, MRSA USA300 and P. aeruginosa E411-17 was grown to the exponential phase (OD600˜0.3) in MHB. The culture was diluted to OD600 0.001 (˜10^5 CFU/mL). One milliliter of bacterial suspension was then mixed with the peptide, colistin or daptomycin at 4×MIC and incubated at 37° C. After 15, 30, 60, 90, and 120 minutes incubation, 50 μL was taken and serially diluted with 1×PBS. Then, 50 μL of the diluted suspension was plated on Mannitol Salt Agar (MRSA USA300) or Cetrimide Agar (P. aeruginosa E411-17) plates (NEOGEN, MI). The plates were incubated overnight at 37° C. for bacterial CFU count the next day.

MRSA USA300 [2] = test: microbe, parasite or virus in culture; format: cell-based, Staphylococcus aureus; details: 17 passages at sub-MIC
Method: The experiment was conducted as described (Lakshmaiah et al. (2020) Proc. Natl. Acad. Sci., 117:19446-19454). Briefly, MRSA USA300 was grown to the exponential phase in MHB and diluted to OD600 0.001 (˜10^5 CFU/mL). Aliquots of 90 μL were added to a 96-well polystyrene microplate (Costar, Corning, NY) containing 10 μL of serially diluted LL-37mini, nafcillin, or daptomycin. After overnight incubation at 37° C., the plates were read at 600 nm using a ChroMate™ microplate reader (GMI, Ramsey, MN). Untreated bacterial culture and medium were included as untreated control and blank, respectively. The MIC is the lowest peptide concentration that inhibited the bacterial growth. The wells with sub-MIC levels of the peptides that retained growth approximately half the growth of the control wells were reinoculated in fresh MHB with sub-MIC concertation of peptides or antibiotics to attain exponential phase for MIC determination. In total, 17 passages of the bacterial cultures were conducted. A rapid increase in MIC is an indication of antibiotic resistance.

[3] = test system: S. aureus USA300 LAC biofilms; test: Disruption of preformed biofilms in vitro (XTT); format: cell-based, Staphylococcus aureus
Method: (§1) Effects of Peptides on Established Biofilms in Vitro. Bacteria (S. aureus USA300 LAC and E. coli E423-17) were grown in rich TSB media overnight. A second inoculation was made the next day to reach an exponential phase (OD600˜0.4). Microtiter plates (96 wells, Corning Costar Cat no. 3595), after aliquoting with 180 μL of the culture to each well, were incubated at 37° C. for 24 hours to form biofilms in rich TSB. Media were aspirated post incubation, and the attached biofilms were washed with 1×PBS to remove the planktonic bacteria. […] Biofilms treated with water served as the positive control, while media without bacterial inoculation served as the negative control. Live cells in the biofilms were quantitated using XTT as described above. Absorbance was read at 450 nm (only media with XTT containing wells served as the blank) using a ChroMate™ microtiter plate reader. Percentage biofilm growth for the peptide was plotted by assuming 100% biofilm growth in bacterial control alone. The data were represented as mean±SD; plots were generated using GraphPad prism 7, where * indicates p<0.05, **p<0.01, and ***P<0.001, and ****p<0.0001 (one-way analyses of variance).
LL-37 is known to inhibit bacterial biofilms (Overhage, et al. (2008) Infect. Immun., 76:4176-4182). However, it was unable to disrupt preformed MRSA biofilms in rich media (Mishra, et al. (2016) ACS Med. Chem. Lett., 7:117-121). Next, it was determined whether the diluted MHB medium could be useful to detect biofilm-disrupting activity for LL-37 against MRSA. An established procedure (Mishra, et al. (2016) ACS Med. Chem. Lett., 7:117-121; Duplantier, et al. (2013) Front. Immunol., 4:143) was used wherein biofilms were formed and washed as usual to remove planktonic cells. The biofilms were then treated with peptides in 12.5% MHB for 24 hours. Finally, live cells were quantified with XTT (ATCC). FIG. 2 compares the levels of live cells of MRSA in the preformed biofilms after 24 hour treatment. […] Of note is a similar pattern for both peptides in 12.5% MHB treated at various concentrations.
Bacteria (S. aureus USA300 LAC or P. aeruginosa E411-17) were grown up in TSB media overnight. A second inoculation was made the next day to reach an exponential phase (OD600˜0.4). Microtiter plates (96 wells, Corning Costar Cat No. 3595), after aliquoting with 180 μL of the culture to each well, were incubated at 37° C. for 24 hours to form biofilms in rich TSB. Media were aspirated post incubation and the attached biofilms were washed with 1×PBS to remove the planktonic bacteria. […] Biofilms treated with water served as the positive control while media without bacterial inoculation served as the negative control. Live cells in the biofilms were quantitated using the XTT as described above. Absorbance was read at 450 nm (only media with XTT containing wells served as the blank) using a ChroMate® microtiter plate reader. Percentage biofilm growth (the plot legend is antibiofilm activity) for the peptides was plotted by assuming 100% biofilm growth in bacterial control alone. The data were represented as mean±SD, plots were generated using GraphPad prism 7, where * indicates p<0.05, ** p<0.01, and ***P<0.001, and ****p<0.0001 (one-way analyses of variance).

E. coli E423-17 biofilms = test: Disruption of preformed biofilms in vitro (XTT); format: cell-based, Escherichia coli; details: for effect on biofilms: 24 h preformed biofilm
Method: as §1

Compound | time to kill (MRSA USA300 [1]) [h] | resistance development (MRSA USA300 [2]) | peptide concentration showing biofilm disruption ([3]; 24 h preformed biofilm, 12.5% MHB) [µM] | antibiofilm activity ([3]; 24 h preformed biofilm, 100% MHB) | effect on biofilms (E. coli E423-17 biofilms; 12.5% MHB) | effect on biofilms (E. coli E423-17 biofilms; 100% MHB) | effect on preformed biofilms ([3]; 48 or 72 hour preformed biofilms) | effect on preformed biofilms ([3]; 24 hours preformed biofilms, 32 μM) | time at which CFU was not detected (killing) (MRSA USA300 [1]) [min] | effect on live cells in biofilms (E. coli E423-17 biofilms; 24 hour preformed biofilms, 16 μM) | reduction of live bacteria (E. coli E423-17 biofilms; 24 hour preformed biofilms, treated at 8 μM) [%]
CCCCCCCCCC(=O)N[C@@H](Cc1c[nH]c2ccccc12)C(=O)N[C@H](CC(N)=O)C(=O)N[C@@H](CC(=O)O)C(=O)N[C@@H]1C(=O)NCC(=O)N[C@@H](CCCN)C(=O)N[C@@H](CC(=O)O)C(=O)N[C@H](C)C(=O)N[C@@H](CC(=O)O)C(=O)NCC(=O)N[C@H](CO)C(=O)N[C@@H]([C@H](C)CC(=O)O)C(=O)N[C@@H](CC(=O)c2ccccc2N)C(=O)O[C@@H]1C [Daptomycin] | 2 | did not develop resistance |  |  |  |  |  |  |  |  | 
CC[C@H](C)[C@H](NC(=O)[C@H](CCCCN)NC(=O)[C@H](CCC(=O)O)NC(=O)[C@H](CCCCN)NC(=O)[C@H](CO)NC(=O)[C@H](CCCCN)NC(=O)[C@H](CCCNC(=N)N)NC(=O)[C@H](Cc1ccccc1)NC(=O)[C@H](Cc1ccccc1)NC(=O)[C@H](CC(=O)O)NC(=O)CNC(=O)[C@H](CC(C)C)NC(=O)[C@@H](N)CC(C)C)C(=O)NCC(=O)N[C@@H](CCCCN)C(=O)N[C@@H](CCC(=O)O)C(=O)N[C@@H](Cc1ccccc1)C(=O)N[C@@H](CCCCN)C(=O)N[C@@H](CCCNC(=N)N)C(=O)N[C@H](C(=O)N[C@H](C(=O)N[C@@H](CCC(N)=O)C(=O)N[C@@H](CCCNC(=N)N)C(=O)N[C@H](C(=O)N[C@@H](CCCCN)C(=O)N[C@@H](CC(=O)O)C(=O)N[C@@H](Cc1ccccc1)C(=O)N[C@@H](CC(C)C)C(=O)N[C@@H](CCCNC(=N)N)C(=O)N[C@@H](CC(N)=O)C(=O)N[C@@H](CC(C)C)C(=O)N[C@H](C(=O)N1CCC[C@H]1C(=O)N[C@@H](CCCNC(=N)N)C(=O)N[C@H](C(=O)N[C@@H](CCC(=O)O)C(=O)N[C@@H](CO)C(=O)O)[C@@H](C)O)C(C)C)[C@@H](C)CC)C(C)C)[C@@H](C)CC [LL-37] |  |  | 32 | essentially no antibiofilm activity | dose-dependent antibiofilm effect | subtle effect |  |  |  |  | 
RRWWRWWR-NH2 [W543] |  | essentially no change in the MIC values |  |  |  |  | Better disruptive effects than daptomycin | essentially eliminated | 120 | almost eliminated | ~40
